According to US20050202070A1, “Iodine/iodide-containing hot melt coatable adhesive, methods and uses therefor” (priority 2002, published 2005):
Where two headings read alike, the source gives them in different places.

Assays:
[1] = Solubility of PVPI, I2/NaI and I2 in plasticizer compounds
[2] = cited from earlier work

Solubility of 2% I2/2.4% NaI in the plasticizer [1]	Solubility of 18% I2 in the plasticizer [1]	Compound	Vapor pressure ([2]; at 25C)	Vapor pressure ([2]; at 90C)	Vapor pressure ([2]; at 184.4C (boils))
Soluble	Soluble	CCCCC(CC)C(=O)OCCOCCOCCOCCOC(=O)C(CC)CCCC (stereo not shown) [TerMerR 804, tetraethyleneglycol di-2ethylhexanoate]			
Soluble	Soluble	CCCCNS(=O)(=O)c1ccccc1 [Plasthall BSA, N-n-butylbenzenesulfonamide]			
		II [iodine]	0.30 mmHG	26.7 mmHg	760 mmHg
